The source of these data is ChEMBL document CHEMBL5634151, “Anti-adipogenic action of a novel oxazole derivative through activation of AMPK pathway” (Eur J Med Chem, 2023).

Activity calls are given as the source filed them. No cut-off for these calls is given here.

For data set [1], the system named is Syrian golden hamster. Description: Anti-obesity activity in high-fat diet induced Syrian golden hamster model assessed as reduction in weight gain at 50 mg/kg, po administered for 7 days and measured daily. Particulars: Mesocricetus auratus, time 7.0 day. The data set is classed as functional, organism-based.
In data set [2] the test system is 3T3-L1. Nature of the data set: Cytotoxicity against mouse 3T3-L1 pre-adipocyte cells assessed as reduction in cell viability at 20 uM incubated for 48 hrs by MTT assay. Type of data set: toxicity, cell-based. Conditions: 3t3-l1, 48 h. (In general: Tetrazolium dyes change colour on reduction, which living cells bring about.)
Data set [3] has as its system 3T3-L1. Description: Inhibition of MDI-cocktail induced adipogenic differentiation in mouse 3T3-L1 pre-adipocyte cells assessed as reduction in CEBPalpha gene expression at 5 uM by qRT-PCR analysis. The data set is classed as functional, cell-based.
Data set [4] concerns 3T3-L1. Description: Induction of cell cycle arrest in MDI-cocktail differentiated mouse 3T3-L1 pre-adipocyte cells assessed as reduction in cyclin D3 protein expression at 5 uM measured after 16 to 24 hrs by immunoblotting analysis. Particulars: time 16-24 hrs. The data set is classed as functional, cell-based. Background: A western blot detects proteins with antibodies after separation by electrophoresis.

Data set [5] deals with Syrian golden hamster. Description: Anti-obesity activity in high-fat diet induced Syrian golden hamster model assessed as rescue of normal liver weight at 25 to 50 mg/kg, po administered for 7 days. Type of data set: functional, organism-based. Particulars: Mesocricetus auratus, dose 25-50 mg/kg, time 7.0 day.
The subject of data set [6] is 3T3-L1. Nature of the data set: Anti-adipogenic activity in MDI-cocktail differentiated mouse 3T3-L1 pre-adipocyte cells assessed as reduction in adipogenic differentiation at 5 uM measured after 3 to 5 days by Oil Red O staining based microscopic analysis. The data set is classed as functional, cell-based. Particulars: time 3-5 day.
Data set [7] concerns 3T3-L1. Description: Inhibition of MDI-cocktail induced adipogenic differentiation in mouse 3T3-L1 pre-adipocyte cells assessed as reduction in PPARgamma protein expression at 0.5 to 5 uM by Western blot analysis. Conditions: dose 0.5-5 µM. The data set is classed as functional, cell-based.
In data set [8] the test system is C3H 10T1/2. Nature of the data set: Anti-adipogenic activity in MDI-cocktail differentiated mouse C3H 10T1/2 cells assessed as reduction in adipogenic differentiation at 5 uM measured after 3 to 5 days by Oil Red O staining based microscopic analysis. Type of data set: functional, cell-based. Conditions: time 3-5 day.
Data set [9] deals with 3T3-L1. Nature of the data set: Induction of mitochondrial respiration in MDI-cocktail differentiated mouse 3T3-L1 pre-adipocyte cells assessed as increase in oxygen consumption rate at 5 uM incubated for 72 hrs by Seahorse XFp flux analyzer. Type of data set: functional, cell-based.
Data set [10] relates to 3T3-L1. Nature of the data set: Anti-adipogenic activity in MDI-cocktail differentiated mouse 3T3-L1 pre-adipocyte cells assessed as reduction in adipogenic differentiation at 5 uM measured after 0 to 7 days by Oil Red O staining based microscopic analysis. Type of data set: functional, cell-based. Conditions: time 0-7 day.
The test system of data set [11] is Syrian golden hamster. Description: Anti-dyslipidaemic activity in high-fat diet induced Syrian golden hamster model assessed as assessed as increase in serum HDL level at 25 to 50 mg/kg, po administered for 7 days. The data set is classed as functional, organism-based. Particulars: Mesocricetus auratus, dose 25-50 mg/kg, time 7.0 day.
A short description of data set [12]: Toxicity in high-fat diet induced Syrian golden hamster obese model assessed as effect on food intake at 25 to 50 mg/kg, po administered for 7 days and measured daily. The data set is classed as organism-based, Mesocricetus auratus. Conditions: in vivo, 168 h, dose 25-50 mg/kg, time 7 day.
The test system of data set [13] is Syrian golden hamster. Description: Hepatoprotective activity in high-fat diet induced Syrian golden hamster model assessed as reduction in serum ALT level at 25 to 50 mg/kg, po administered for 7 days. The data set is classed as functional, organism-based. Particulars: Mesocricetus auratus, dose 25-50 mg/kg, time 7.0 day.
Data set [14] relates to Syrian golden hamster. Description: Anti-dyslipidaemic activity in high-fat diet induced Syrian golden hamster model assessed as assessed as reduction in serum triglyceride level at 25 to 50 mg/kg, po administered for 7 days. Type of data set: functional, organism-based. Particulars: Mesocricetus auratus, dose 25-50 mg/kg, time 7.0 day.

As for `Cc1ccc(-c2cnc(-c3ccc[n+](Cc4cccc(C)c4)c3)o2)cc1.[Br-]`, the outcome in data set [1], in [4], in data set [6], in data set [8], in data set [9] and in data set [10] was Active. The result in data set [13] and in data set [14] was Active. Moreover, the Activity entry in data set [2] and in data set [12] was “Non-Toxic” throughout. In addition, the inhibition result in [3] and in data set [7] was “Active” throughout. Besides, the outcome in data set [5] and in data set [11] was inactive.
